From US20020094524A1, “Compositions and methods for inhibiting HIV infection” (priority 2000, published 2002)

Experiments:
HIV gag mRNA = HIV gag mRNA by RT-PCR / real time RT-PCR in infected MDM; assay type: cell-based
Procedure: HIV Infection: After 2 h incubation with or without the reagents described above, the cells were infected with equal amounts of cell-free HIV based on p24 antigen content (20 ng/10^6 cells) overnight, and then washed to remove unbound virus. Fresh media containing SP and/or CP-96,345 or anti-SP antibody were added to the MDM as described above. The culture media and the reagents were replaced twice weekly. The culture supernatants were harvested for HIV reverse transcriptase (RT) activity determinations. After HIV infection, the MDM were incubated for 8 to 12 days. At the termination of the experiments, cellular RNA was extracted for assessment of HIV gag gene expression using RT-PCR or real time RT-PCR assays.
Total RNA was isolated from human peripheral blood MDM (10^6 cells) using Tri-Reagent (Molecular Research Center, Cincinnati, Ohio) as we previously reported (16).
Reverse transcription: Total RNA (1 μg) was reverse transcribed using Reverse Transcription System (Promega, Madison, Wis.) with the specific primers (antisense) for HIV gag (5′-[…]-[…]-3′; SEQ ID NO: 1) (27) or CCR5 (5′-[…]-3′; SEQ ID NO: 2) (32) for 1 h at 42° C. RT reactions was terminated by incubating the reaction mixture at 99° C. for 5 min and then kept at 4° C. The resulting cDNA was used as a template for PCR amplification or real time PCR quantification. […]

TNF-α = assay: LPS-stimulated TNF-α production in MDM (ELISA); assay type: cell-based, human; conditions: 10^−9 to 10^−7M; LPS 1 ng/ml; 24 h; concentration-dependent (FIG. 11)
Procedure: (§1) In order to determine the role of CP-96,345 in the regulation of cytokine secretion, 7-day-cultured MDM were incubated with or without CP-96,345 (10^−9 to 10^−7M) and/or LPS (1 ng/ml) for 24 h. The culture supernatants were collected to determine TNF-α and IL-6 levels by ELISA. The ELISA kits were purchased from Endogen, Inc. (Woburn, Mass.).

IL-6 = IL-6 production in LPS-treated MDM (ELISA); assay type: cell-based, human; conditions: 10^−9 to 10^−7M; LPS 1 ng/ml; 24 h (FIG. 11)
Procedure: as §1

SP mRNA = SP mRNA expression in MDM (real-time RT-PCR); assay type: cell-based, human; conditions: 4 hours; indicated concentration (FIG. 17)
Procedure: FIG. 17. A graph showing the effect of CP-96,345 on SP mRNA expression in MDM. The MDM were incubated with (+) or without (−) the NK-1R antagonist at the indicated concentration for 4 hours. The SP mRNA levels were determined by a real-time RT-PCR. The SP mRNA levels in the CP-96,345 treated MDM are expressed as a percentage of that in untreated MDM which are defined as 100%.
The effect of CP-96,345 on SP mRNA expression in MDM was also determined. The MDM were incubated with (+) or without (−) the NK-1R antagonist at the indicated concentration for 4 hours. The SP mRNA levels were determined by a real-time RT-PCR.

SMILES: COc1ccccc1CN[C@H]1C2CCN(CC2)[C@H]1C(c1ccccc1)c1ccccc1 [CP-96,345, 2S, 3S)-cis-2-(diphenylmethyl)-N-[(2-methoxyphenyl)-methyl]-1-azabicyclo[[2.2.2]octan-3-amine]
- HIV gag mRNA expression (RT-PCR) (HIV gag mRNA; 10^−11 to 10^−7 M, 12 days after infection, concentration-dependent (FIG. 3 top panel)): potently inhibited
- HIV gag gene mRNA expression (real time RT-PCR copy numbers) (HIV gag mRNA; all three concentrations tested, 12 days after infection (FIG. 3)): significantly suppress
- LPS-stimulated TNF-α production in MDM (TNF-α): attenuated
- IL-6 production in MDM (IL-6): not affected
- SP mRNA expression in MDM (SP mRNA): significantly inhibited
